The record followed here is ChEMBL document CHEMBL2380255, “Dual targeting of adenosine A(2A) receptors and monoamine oxidase B by 4H-3,1-benzothiazin-4-ones” (J Med Chem, 2013).

Molecules are shown by their SMILES. pIC50, pKi: −log10 of the molar value. The source made the active and inactive calls. No cut-off for these calls is given here.

Data set [1] concerns the target T1, Amine oxidase [flavin-containing] B (Rattus norvegicus, UniProt P19643).
T1 sequence (P19643 whole entry): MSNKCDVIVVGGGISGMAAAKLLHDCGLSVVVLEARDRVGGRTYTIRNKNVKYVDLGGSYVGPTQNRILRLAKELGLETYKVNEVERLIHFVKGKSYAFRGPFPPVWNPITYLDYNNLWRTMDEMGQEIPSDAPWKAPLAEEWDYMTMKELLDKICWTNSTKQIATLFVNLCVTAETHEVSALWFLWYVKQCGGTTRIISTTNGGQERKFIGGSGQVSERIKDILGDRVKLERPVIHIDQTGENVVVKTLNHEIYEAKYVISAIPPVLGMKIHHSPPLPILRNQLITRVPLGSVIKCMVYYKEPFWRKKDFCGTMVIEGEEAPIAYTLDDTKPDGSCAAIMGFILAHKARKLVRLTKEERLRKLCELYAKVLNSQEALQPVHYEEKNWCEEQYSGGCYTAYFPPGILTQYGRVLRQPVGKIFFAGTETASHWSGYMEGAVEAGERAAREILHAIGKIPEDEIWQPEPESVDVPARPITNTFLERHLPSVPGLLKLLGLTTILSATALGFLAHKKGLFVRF
As to the kind of experiment: Inhibition of MAO-B in mitochondria-enriched Sprague-Dawley rat liver fractions using p-tyramine as substrate incubated for 30 mins prior to substrate addition measured for 45 mins by amplex red reagent-based microplate fluorescence reader analysis.

Data set [2] has as its target T2, Adenosine receptor A3 (Homo sapiens, UniProt P0DMS8).
T2 sequence (P0DMS8 whole entry): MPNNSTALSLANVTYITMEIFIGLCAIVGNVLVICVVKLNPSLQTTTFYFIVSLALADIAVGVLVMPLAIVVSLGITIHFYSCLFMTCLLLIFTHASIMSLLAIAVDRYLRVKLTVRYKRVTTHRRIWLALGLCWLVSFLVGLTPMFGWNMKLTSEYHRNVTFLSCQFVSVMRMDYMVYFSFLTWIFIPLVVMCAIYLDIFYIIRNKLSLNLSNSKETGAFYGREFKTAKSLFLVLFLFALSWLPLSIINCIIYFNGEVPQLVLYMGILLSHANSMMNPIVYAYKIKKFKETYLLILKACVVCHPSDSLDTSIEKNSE
The data set is described as follows: Displacement of [3H]PSB-11 from human recombinant adenosine A3 receptor expressed in CHO cells after 60 mins by liquid scintillation counting analysis. It is filed as cell-based. For orientation: Loss of bound radioactivity is the signal in a displacement assay; it reports binding, not function.

The nature of data set [3]: Stability of the compound in DMSO at 1 mg/ml under daylight condition at 20 degC after 24 hrs by LC-MS analysis. Format: physicochemical.
For data set [4], the target named is T3, Adenosine receptor A1 (Homo sapiens, UniProt P30542).
T3 sequence (P30542 whole entry): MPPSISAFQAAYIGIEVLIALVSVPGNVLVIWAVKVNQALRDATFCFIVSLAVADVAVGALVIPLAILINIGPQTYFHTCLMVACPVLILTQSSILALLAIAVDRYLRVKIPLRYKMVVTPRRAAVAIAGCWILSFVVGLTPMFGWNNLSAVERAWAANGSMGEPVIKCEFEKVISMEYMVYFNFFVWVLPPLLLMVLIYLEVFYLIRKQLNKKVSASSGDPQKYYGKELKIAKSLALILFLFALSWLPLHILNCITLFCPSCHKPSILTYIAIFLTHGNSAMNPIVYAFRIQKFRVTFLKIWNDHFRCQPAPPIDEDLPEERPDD
As to the kind of experiment: Displacement of [3H]CCPA from human recombinant adenosine A1 receptor expressed in CHO cells after 90 mins by liquid scintillation counting analysis. It is filed as cell-based.

For data set [5], the target named is T3, Adenosine receptor A1. The data set is described as follows: Displacement of [3H]CCPA from human recombinant adenosine A1 receptor expressed in CHO cells.
Data set [6] addresses T2, Adenosine receptor A3. The data set is described as follows: Displacement of [3H]PSB-11 from human recombinant adenosine A3 receptor expressed in CHO cells. Format: cell-based.
The target of data set [7] is T4, Amine oxidase [flavin-containing] B (Homo sapiens, UniProt P27338).
T4 sequence (P27338 whole entry): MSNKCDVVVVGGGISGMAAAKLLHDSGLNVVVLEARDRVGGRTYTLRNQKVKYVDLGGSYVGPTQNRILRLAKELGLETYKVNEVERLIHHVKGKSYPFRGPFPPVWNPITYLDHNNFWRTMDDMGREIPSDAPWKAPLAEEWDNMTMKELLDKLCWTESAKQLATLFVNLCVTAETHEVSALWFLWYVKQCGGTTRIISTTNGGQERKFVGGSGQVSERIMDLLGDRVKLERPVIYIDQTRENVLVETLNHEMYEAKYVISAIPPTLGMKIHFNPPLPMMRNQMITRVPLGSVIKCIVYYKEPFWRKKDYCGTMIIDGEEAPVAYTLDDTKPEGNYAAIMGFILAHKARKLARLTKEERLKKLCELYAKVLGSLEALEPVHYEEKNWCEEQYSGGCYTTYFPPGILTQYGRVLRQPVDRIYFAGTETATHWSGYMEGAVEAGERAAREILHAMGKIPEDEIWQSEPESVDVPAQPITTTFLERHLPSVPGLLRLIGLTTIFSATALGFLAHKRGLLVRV
As to the kind of experiment: Ratio of selegiline IC50 to compound IC50 for recombinant human MAO-B.

For data set [8], the target named is T4, Amine oxidase [flavin-containing] B. As to the kind of experiment: Inhibition of recombinant human MAO-B expressed in baculovirus-infected insect cells using p-tyramine as substrate incubated for 30 mins prior to substrate addition measured for 45 mins by amplex red reagent-based microplate fluorescence reader analysis. It is filed as cell-based.
Data set [9] deals with Adenosine receptor A2a (Rattus norvegicus, UniProt P30543). The data set is described as follows: Displacement of [3H]MSX2 from adenosine A2A receptor in rat brain striatal membranes after 30 mins by liquid scintillation counting analysis. Format: cell membranes, Membrane.
Adenosine receptor A2a (Rattus norvegicus, UniProt P30543), sequence (P30543 whole entry): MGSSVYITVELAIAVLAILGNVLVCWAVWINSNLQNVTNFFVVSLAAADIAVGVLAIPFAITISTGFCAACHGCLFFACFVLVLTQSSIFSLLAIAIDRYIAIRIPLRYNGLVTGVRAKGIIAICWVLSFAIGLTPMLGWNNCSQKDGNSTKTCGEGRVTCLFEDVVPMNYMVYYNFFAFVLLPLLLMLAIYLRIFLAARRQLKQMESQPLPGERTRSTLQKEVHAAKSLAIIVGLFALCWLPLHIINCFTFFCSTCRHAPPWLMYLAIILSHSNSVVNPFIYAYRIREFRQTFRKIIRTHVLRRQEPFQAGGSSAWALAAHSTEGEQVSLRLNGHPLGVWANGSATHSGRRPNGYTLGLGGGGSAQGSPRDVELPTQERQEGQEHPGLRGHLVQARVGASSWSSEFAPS
Data set [10] addresses T5, Adenosine receptor A1 (Rattus norvegicus, UniProt P25099).
T5 sequence (P25099 whole entry): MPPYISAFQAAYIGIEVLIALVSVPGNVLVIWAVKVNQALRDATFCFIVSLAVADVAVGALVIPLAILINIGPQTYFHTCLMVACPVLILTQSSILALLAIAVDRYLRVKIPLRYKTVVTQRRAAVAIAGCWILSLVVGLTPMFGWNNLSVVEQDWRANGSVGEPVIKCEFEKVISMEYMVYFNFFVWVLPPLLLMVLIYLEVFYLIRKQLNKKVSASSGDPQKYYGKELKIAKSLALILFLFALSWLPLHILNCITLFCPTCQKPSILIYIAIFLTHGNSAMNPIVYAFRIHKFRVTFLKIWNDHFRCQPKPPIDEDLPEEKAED
As to the kind of experiment: Displacement of [3H]CCPA from adenosine A1 receptor in rat brain cortical membranes after 90 mins by liquid scintillation counting analysis. Format: cell membranes, Membrane.

Another data set addresses T6, Adenosine receptor A2b (Homo sapiens, UniProt P29275).
T6 sequence (P29275 whole entry): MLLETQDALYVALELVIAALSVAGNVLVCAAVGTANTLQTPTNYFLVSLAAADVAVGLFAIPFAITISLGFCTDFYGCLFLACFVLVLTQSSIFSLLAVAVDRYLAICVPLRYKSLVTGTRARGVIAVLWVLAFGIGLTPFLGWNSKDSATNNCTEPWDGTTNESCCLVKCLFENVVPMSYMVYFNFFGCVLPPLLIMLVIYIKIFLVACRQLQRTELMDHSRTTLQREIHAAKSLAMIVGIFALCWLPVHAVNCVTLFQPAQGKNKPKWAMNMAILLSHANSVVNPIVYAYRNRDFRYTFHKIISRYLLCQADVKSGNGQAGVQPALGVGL
The data set is described as follows: Displacement of [3H]PSB-603 from human recombinant adenosine A2B receptor expressed in CHO cells after 75 mins by liquid scintillation counting analysis. Format: cell-based.

The nature of data set [11]: Selectivity ratio of IC50 for MAO-B in mitochondria-enriched Sprague-Dawley rat liver fractions to IC50 for recombinant human MAO-B.
Data set [12] deals with T7, Adenosine receptor A2a (Homo sapiens, UniProt P29274). The data set is described as follows: Antagonist activity at human adenosine A2A receptor expressed in CHO cells assessed as decrease in cAMP accumulation up to 20 uM preincubated for 10 mins measured after 60 mins by liquid scintillation counting analysis in presence of [3H]cAMP. Format: functional, cell-based.
T7 sequence (P29274 whole entry): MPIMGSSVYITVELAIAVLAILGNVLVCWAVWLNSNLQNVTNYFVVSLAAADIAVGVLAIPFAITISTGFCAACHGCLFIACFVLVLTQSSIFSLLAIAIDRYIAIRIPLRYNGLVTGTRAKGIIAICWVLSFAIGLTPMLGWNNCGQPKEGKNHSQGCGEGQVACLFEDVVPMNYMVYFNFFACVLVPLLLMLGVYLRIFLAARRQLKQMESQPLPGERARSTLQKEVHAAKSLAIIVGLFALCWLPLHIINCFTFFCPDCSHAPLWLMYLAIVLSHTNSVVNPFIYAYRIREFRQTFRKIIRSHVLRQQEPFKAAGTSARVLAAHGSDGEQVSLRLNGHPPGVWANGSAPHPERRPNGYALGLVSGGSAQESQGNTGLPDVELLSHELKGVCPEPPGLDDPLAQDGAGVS

Data set [13] is filed under the species Homo sapiens. As to the kind of experiment: Selectivity ratio of Ki for human recombinant adenosine A1 receptor to Ki for human recombinant adenosine A2A receptor.
The target of data set [14] is T4, Amine oxidase [flavin-containing] B. As to the kind of experiment: Reversible inhibition of human MAO-B using p-tyramine as substrate at IC80 incubated for 22 mins followed by substrate addition measured for 5 hrs by fluorescence assay.
The species entered for data set [15] is Homo sapiens. As to the kind of experiment: Selectivity ratio of Ki for human recombinant adenosine A3 receptor to Ki for human recombinant adenosine A2A receptor.
The species named for data set [16] is Homo sapiens. As to the kind of experiment: Selectivity ratio of Ki for human recombinant adenosine A2B receptor to Ki for human recombinant adenosine A2A receptor.
For data set [17], the target named is T4, Amine oxidase [flavin-containing] B. As to the kind of experiment: Competitive inhibition of human MAO-B using p-tyramine as substrate at 50 to 300 nM using p-tyramine as substrate incubated for 30 mins prior to substrate addition measured for 45 mins by Lineweaver-burk plot analysis. As to conditions: 0.75 h.
Data set [18] addresses T7, Adenosine receptor A2a. The data set is described as follows: Displacement of [3H]MSX2 from human recombinant adenosine A2A receptor expressed in CHO cells after 30 mins by liquid scintillation counting analysis. Format: cell-based.
The nature of data set [19]: Stability of the compound in DMSO at 1 mg/ml under daylight condition at 20 degC after 7 days by LC-MS analysis. It is filed as physicochemical. As to conditions: 168 h.
Data set [20] has as its target T7, Adenosine receptor A2a. The data set is described as follows: Antagonist activity at human adenosine A2A receptor expressed in CHO cells assessed as decrease in NECA-induced cAMP accumulation up to 20 uM incubated for 10 mins followed by NECA induction for 15 mins measured after 60 mins by liquid scintillation counting analysis in presence of [3H]cAMP. Format: functional, cell-based. In general terms: Cyclic AMP is a second messenger, typically raised through Gs and lowered through Gi signalling.

A word on the pIC50: it is −log10 of the IC50, conventionally taken in molar units. By pKi is commonly meant −log10 of the Ki, conventionally taken in molar units. Consider `Cn1c(=O)c2c(nc(/C=C/c3cccc(Cl)c3)n2C)n(C)c1=O`, for which the negative logarithm of the IC50 (pIC50) in data set [1] is 7.41. Moreover, the negative-log Ki (pKi) on Adenosine receptor A3 [2] is under 6.00; at Adenosine receptor A1 [4], under 5.00. Also, the Stability result in [3] is on record as “Unstable”.
On to `CCn1c(=O)c2c(nc(/C=C/c3ccc(OC)c(OC)c3)n2C)n(CC)c1=O` [ISTRADEFYLLINE], for which the negative logarithm of the Ki (pKi) at Adenosine receptor A1 [5] is 5.55; at Adenosine receptor A3 [6], under 5.52.
Take `O=C(COc1cccc(Cl)c1)Nc1nc2ccccc2c(=O)s1`: the “Ratio IC50” value was determined as 4 in data set [7] and 400 in data set [11]. Moreover, the negative-log IC50 (pIC50) in data set [8] was 8.79; in [1], 6.18. Besides, the negative-log Ki (pKi) is under 5.00 on Adenosine receptor A2a [9], under 6.00 at Adenosine receptor A3 [2], under 5.00 on Adenosine receptor A1 [10] and under 6.00 on Adenosine receptor A2b.
As for `O=C(CCCc1ccccc1)Nc1nc2ccccc2c(=O)s1`, the outcome at Adenosine receptor A2a [12] and on Adenosine receptor A2a [20] was Active. The pIC50 in [8] is 7.46; in data set [1] it was 6.73. Also, the Ratio Ki in the data set filed under Homo sapiens [13] is 63; in the data set filed under Homo sapiens [15], over 25; in the data set filed under Homo sapiens [16], over 25. Also, the negative-log Ki (pKi) at Adenosine receptor A2a [9] is 6.37; at Adenosine receptor A3 [2], under 6.00; at Adenosine receptor A1 [10], 6.64; on Adenosine receptor A2b, under 6.00; on Adenosine receptor A2a [18] it was 7.40; at Adenosine receptor A1 [4], 5.60. The “inhibition (INH)” value in [14] and in data set [17] was “Active” each time. Besides, the Ratio IC50 in data set [11] came to 1.4. Besides, in [19], the Stability result is “Stable”.
